Assay [1] has as its system haematopoietic stem cell adhesion factors (Sdf-1a, Kit1, Angpt1, IL7, Vcam1, and Spp1) present in the osteoblasts. Kind of assay: Expression of haematopoietic stem cell adhesion factors in osteoblasts treated with neuropeptide Y (real-time quantitative PCR). The conditions noted are these: neuropeptide Y 0, 1, and 5 nM for 3 days; compared to untreated osteoblasts (control); p<0.05, n=3. The format is cell-based, C57BL/6 mice. The method, then: (§1) Neuropeptide Y, a Y1 agonist, and a Y1 antagonist were purchased from Bache, and used. To perform an in vitro experiment, 1 nM NPY, and 5 nM NPY were diluted with a medium, and injected. For the in vivo experiment, a total of 15 mice (three mice in each group) were also anesthetized with a mixed solution of 100 mg/kg ketamine and 10 mg/kg xylazine, and 50 μg/kg of either neuropeptide Y, Y1 agonist, or Y1 antagonist, and 100 μl of PBS (Gibco) were injected through the tail veins of the mice.
Four- to six-week-old C57BL/6 mice were anesthetized, and sacrificed, and their tibias and femurs were incised. […]
(§2) To measure expression levels of haematopoietic stem cell adhesion factors (Sdf-1a, Kit1, Angpt1, IL7, Vcam1, and Spp1) present in the osteoblasts, a real-time quantitative polymerase chain reaction (PCR) method was used.
(§3) A total of RNAs were extracted from a cell lysate and bone marrow cells using an RNeasy Plus Mini kit (Qiagen, Korea, Ltd), and cDNA was synthesized from a total of 5 μg of RNA using a kit commercially available from Clontech (Mountain View, Calif.). Also, real-time quantitative PCR, which included denaturation at 95° C. for 10 minutes; and 40 cycles with one cycle consisting of denaturation at 95° C. for 10 seconds, annealing at 58° C. for 15 seconds, and extension at 72° C. for 20 seconds, was performed using a Corbett research RG-6000 real-time PCR machine. […]

Assay [2] has as its system bone-marrow haematopoietic stem cell adhesion factors. Kind of assay: Expression of bone-marrow haematopoietic stem cell adhesion factors in bone marrow after tail-vein injection (real-time quantitative PCR). The format is in vivo, mice. The settings on record: 50 μg/kg through the tail veins; bone marrow taken after 60 minutes; p<0.05, n=3. The method, then:
as §1, §2, §3

The test system of assay [3] is bone-marrow hematopoietic progenitor cells in blood. Description: Colony-forming cell (CFC) assay of blood after tail-vein injection. The settings on record: 50 μg/kg tail vein; after 60 minutes of injection (of 15 minutes, 60 minutes, 12 hours). The format is in vivo, mice. The method, then: as §1
A colony-forming cell (CFC) assay was performed to measure the number of bone-marrow hematopoietic progenitor cells in blood from mice.
First, the mice were anesthetized, and 500 μl to 700 μl of blood was drawn from the hearts of the mice, and collected in a heparin tube. Thereafter, the collected blood was added to an ammonium chloride solution (Stem Cell Technologies, Inc. 1:10), and kept in ice for 15 minutes to remove red blood cells. The blood was shaken at intervals of 2 to 3 minutes to sufficiently remove the red blood cells, and centrifuged at 1,000 rpm for 7 minutes. […] Then, colonies formed on the flask were counted. […]
To examine an effect of the activation of the neuropeptide Y receptor on the release of the bone marrow precursor cells into the blood, the colony number of the bone marrow precursor cells was also counted using a CFC assay as described in Example 1-4. […]

In assay [4] the test system is bone-marrow haematopoietic stem cells. Description: Flow cytometry analysis (FAC) of bone-marrow haematopoietic stem cells. The format is in vivo, mice. The conditions noted are these: 50 μg/kg; bone marrow after 60 minutes; compared to PBS; p<0.05, n=3. The method, then: To determine whether there is a change in the number of the bone-marrow haematopoietic stem cells present in the bone marrows from the mice, NPY and PBS were injected to normal mice. After 60 minutes, the bone marrows were collected, and analyzed by flow cytometry analysis (FAC) using five antibodies Lineage, Sca-1, c-kit, CD48, and CD150, which were markers for the bone-marrow haematopoietic stem cells.
To analyze the bone-marrow haematopoietic stem cells, the bone marrows collected from the tibias and femurs of 4- to 6-week-old C57BL/6 mice was added in an ammonium chloride solution (Stem Cell Technologies, Inc. 1:4) to remove red blood cells. Thereafter, the red blood cells were washed with a PBS (Gibco) solution supplemented with 10% fetal bovine serum (FBS, Gibco) and 1% sodium azide (Sigma-Aldrich), and then centrifuged at 300×g for 10 minutes. Hemoblasts included in the bone marrow were removed with MAC beads (MiltenyiBiotec) using a biotinylated lineage antibody (MiltenyiBiotec), and the remaining cells were reacted with Sca-1-PECY7, c-kit-APC, CD150-PE, CD48-FITC (BD Science) antibodies at 4° C. for 30 minutes, and then analyzed using an LSRII (BD Science) flow cytometer.
First, normal mice were divided into two groups (three mice in each group), and 50 μg/kg of neuropeptide Y and 100 μl of PBS (Gibco) were administered to the mice. […]
(In general: Flow cytometry measures light scatter and fluorescence of single cells or particles in a stream.)

Assay [5] has as its system bone-marrow haematopoietic stem cells and bone-marrow hematopoietic progenitor cells. Kind of assay: Competitive transplantation assay. The format is in vivo, mice. The method, then: As an experimental method capable of determining the migration of bone-marrow haematopoietic stem cells and bone-marrow hematopoietic progenitor cells present in the bone marrows of the mice into blood, a competitive transplantation assay were performed.
A mixture of bone marrow cells (2×10^6) of Ly5.2 (C57BL/6) donor mice and bone marrow cells (2×10^6) of Ly5.1 (BoyJ) mice was injected to recipient mice whose whole bodies were exposed to 10 Gy irradiations (2×5 Gy) through the tail veins thereof. On the week 8 of transplantation of the bone marrow cells, blood was drawn from the recipient mice, and analyzed by an LSR II (BD science) flow cytometer using CD45.1-PE (BD Science), and CD45.2-FITC (BD Science) antibodies. Repopulating units (RU) are indicated using a calculation method represented by the following Equation 1.
Repopulating unit (RU)=(20×CD45.2%)/(100−CD45.2%) [Equation 1]
A mixture of bone marrow cells ([…]) of Ly5.2 (C57BL/6) donor mice and bone marrow cells ([…]) of Ly5.1 (BoyJ) mice was injected to recipient mice whose whole bodies were exposed to 10 Gy irradiations (2×5 Gy) through the tail veins thereof. On the week 8 of transplantation of the bone marrow cells, blood was drawn from the recipient mice, and analyzed by an LSR II (BD science) flow cytometer using CD45.1-PE (BD Science), and CD45.2-FITC (BD Science) antibodies. […]

In another assay the test system is osteoporosis model. Description: Osteoporosis model (ovariotomy) and control model, micro-CT of femurs. The format is in vivo, C57BL/6 female mice. The settings on record: for entire bone density in micro-CT images: compared to PBS. The method, then: Also, a total 6 female mice (three mice in each group), 12 weeks old, were subjected to an ovariotomy to establish an osteoporosis model. After a week, 50 μg/kg of neuropeptide Y and 100 μl of PBS (Gibco) were abdominally administered twice a day to the female mice at an interval of 12 hours for 3 weeks. As the control, a total 6 female mice (three mice in each group) were subjected to […] to establish a Sham model for osteoporosis. In this case, 100 μl of PBS or 50 μg/kg of neuropeptide Y was abdominally administered. […] To measure a bone density (bone volume/total volume) and a trabecular thickness, volume fractions with 2.5×0.5×0.5 mm^3 in the same portions of the femurs in each group were measured using Siemens Inveon software. First, three C57BL/6 female mice in each group, 12 weeks old, were subjected to an ovariotomy to establish an osteoporosis model. After a week, 50 μg/kg of neuropeptide Y and 100 μl of PBS (Gibco) were abdominally administered twice a day to the female mice at an interval of 12 hours for 3 weeks. As the control, the normal mice which were subjected to subcutaneous incision alone and into which 100 μl of PBS and 50 μg/kg of neuropeptide Y were abdominally administered were used. On the 22nd day, the femurs of the mice were isolated, and refrigerated in 80% ethanol, and the bone density and the trabecular thickness were then measured using micro CT.

Another assay deals with S1P receptor. The conditions noted are these: administered so as to reduce the number of the osteoclasts in the bone marrow; cited from earlier work.
Where [6] appears, read: osteoporotic (OVX) mice, 50 μg/kg abdominally twice a day for 3 weeks, versus PBS, n=3.

Entries after “also recorded” stand apart in the source; their conditions may differ.

Data on three molecules can be found in US20160243198A1, “Pharmaceutical Composition for Preventing or Treating Osteoporosis Which Comprises Neuropeptide Y as Active Ingredient” (KYUNGPOOK NATIONAL UNIVERSITY INDUSTRY-ACADEMIC COOPERATION …, priority 2013, published 2016).

Consider neuropeptide Y, for which the “expression levels of Sdf-1a, Kit1, and Angpt1 in osteoblasts” value in assay [1] is “decreased in a ration-dependent manner”. Further, the “expression levels of the adhesion factors Sdf-1a, Kit1, Angpt1, and Vcam1 in bone marrow” value in assay [2] is “decreased; also recorded: generally reduced”. In assay [3], the “colony number of the bone-marrow hematopoietic progenitor cells released into the blood” value was “largest colony number”. Also, the “bone-marrow haematopoietic stem cells labeled with Lin−, Sca-1+, c-kit+, CD48−, and CD150+ in the bone marrow” value in assay [4] is “decreased in the bone marrow”. Moreover, the “number of the haematopoietic stem cells (CD45.2+ cells) in the bone marrows of injected mice” value in assay [5] (compared to bone marrows of mice into which PBS was injected) is “lower”. Further, in assay [5] (donor bone marrow of injected mice mixed with Ly5.1 bone marrow, recipient blood 8 weeks after transplantation, compared to PBS), the “ratio of the CD45.2+ cells” value was “reduced”. Moreover, the “entire bone density in micro-CT images” value with osteoporosis model (control (Sham) model, 50 μg/kg abdominally) was “higher entire bone density; also recorded: increased”. In the assay on osteoporosis model (long-term administration in the osteoporosis model), the “decrease in bone density and trabecular thickness of the osteoporotic mice” value is “inhibited”. In the assay on osteoporosis model (osteoporotic (OVX) mice, 50 μg/kg abdominally twice a day for 3 weeks), the “entire bone density in micro-CT images” value is “higher entire bone density; also recorded: remarkably increased”. Besides, in the assay on osteoporosis model (setting [6]), the “bone density (BV/TV, %)” value is recorded as “higher” and the “trabecular thickness (mm)” value was “higher”.

Consider `CCCCCCCCCCCCC/C=C/[C@@H](O)[C@@H](N)COP(=O)(O)O` [sphingosine-1-phosphate], for which the bone formation result with S1P receptor is reported as “increases”.

For `CCCCCCCCc1ccc(CCC(N)(CO)CO)cc1` [FTY720], the bone formation entry in the assay on S1P receptor is “increases”.
